# From publication PMC6424980, “Distinct G protein-coupled receptor phosphorylation motifs modulate arrestin affinity and activation and global conformation” (Nature Communications, 2019)
# Experiments:
# arrestin-1 (F85A, F197A) = experiment: Limited trypsin digestion of arrestin-1 in presence of peptide; assay type: biochemical, bovine; settings: arrestin:peptide 1:1.2, 35 °C, SDS PAGE
# Text: Synthesized cDNAs of bovine arrestin-1, human arrestin-2 and human arrestin-3 were ordered from Genewiz, amplified by PCR and cloned (Supplementary Information Table 5) into the pET-15b vector (Novagen), using the Gibson Assembly protocol. The constructs contained an N-terminal hexa histidine tag linked by a linker that contained a Tobacco Etch Virus cleavage site (TEV; […]). PCR was used to introduce the monomerizing arrestin-1 mutations (F85A, F197A)[58]. Note that this mutant was employed for fluorescence anisotropy, trypsin digestion, and NMR experiments. Wild-type arrestin-2 and -3 were used for fluorescence anisotropy and trypsin digestion experiments. […] The arrestin-1 in this construct had the wild-type sequence. Note that this construct differs slightly from that previously published[59],[60] and was optimized for purification. We verified the functionality of this fusion construct using the standard centrifugal pull-down assay using phosphorylated rhodopsin in native ROS membranes.
# Arrestin (60 µg) was mixed at a 1 to 1.2 molar ratio with peptide and preincubated at RT for 5 min before 1 μl of 0.15 mg/ml trypsin stock was added. The enzymatic digestion was carried out at 35 °C (20 mM Bis-Tris propane pH 7.0, 150 mM NaCl, 10 mM 2‑Mercaptoethanol and 2 mM EDTA). At certain time points (5, 15, 30, 60, 90 min), 5 μl aliquots were quenched with heat incubation in the presence of 20 μl SDS loading buffer (95 °C, 5 min) and then subjected to SDS PAGE. Bands were visualized with InstantBlue (Expedeon).
# arrestin-1 = experiment: [15N,1H]TROSY NMR titration of arrestin-1 with peptide; assay type: binding, bovine; settings: peptide:arrestin-1 up to 10:1
# Protocol: ^2H,^15N,^13C-labeled arrestin-1 aliquots were thawed quickly under running water, transferred to 30 kDa-cutoff Vivaspin (0.5 ml, Sartorius) centrifugal spin concentrators, and concentrated to approximately 600 μM. The concentrator was immediately transferred into a beaker filled with 400 ml of NMR buffer 1 or 2 (see below) carried by a floatation device. The dialysis was performed at 4 °C overnight. On the next day the concentration was determined by UV absorbance at 280 nm (molar extinction coefficient 26,360/mol/cm). […] The dialysis was performed at 4 °C overnight, and the peptide concentration was determined by its absorbance at 205 nm (molar extinction coefficient: 54,310/mol/cm). […]
# NMR measurements were performed on Bruker Avance III-HD 600 or 900 MHz spectrometer using a CTCI cryo-cooled probehead. […] Pulse lengths were calibrated for ^1H manually and for ^13C/^15N using an in-house automated procedure. pH was monitored using the position of the phosphate signal in NMR buffer 2 as an internal reference and varied by no more than 0.03 pH units during peptide titration experiments. [^15N,^1H]TROSY experiments were recorded with internal ETH pulse sequences, whereas 3D triple resonance TROSY experiments were recorded using the manufacturer’s pulse sequences. […]
sequence,measurement,setting,value
"CDDEASTTVSKTETSQVAPA [5P, multiply phosphorylated rhodopsin C-terminus peptide lacking key site pS343]","limited trypsin digest pattern of arrestin-1 (conformational change, C-tail displacement)","arrestin-1 (F85A, F197A)",inability to induce conformational changes
same,NMR chemical shift / peak changes in arrestin-1 (in words),arrestin-1,minimal chemical shift changes
